# Measurements from patent publication EP3118219A1, “NICOTINIC CHANNEL SUBUNITS OF […] AND THEIR USES THEREOF” (priority 2015, dated 2017).
# Key:
# [1] = test system: Apis mellifera nicotinic acetylcholine receptor Am-nAChRα5 (nAChRα5 subunit, SEQ ID NO: 5), expressed with unc74+unc50+emc6; experiment: Two-electrode voltage-clamp dose-response on Xenopus laevis oocytes expressing the nAChRα5 subunit (with unc74+unc50+emc6); format: cell-based; conditions: current in Xenopus oocytes, dose-response curve; traces at 500 µM (Figure 4)
# Experimental: (§1) For example, ric3 (from C.elegans, the nucleic acid sequence being SEQ ID NO: 64 and the amino acid sequence being SEQ ID NO: 65, or honeybee) is clearly necessary to get a reliable expression of the nAChR α7 subunit and a response to ACh, while for the nAChRα5 subunit a cocktail of emc6, unc50 and unc74 chaperone proteins improves expression with response amplitude between 0.1 to several µA for ACh concentration between 1 to 1000µM (Figure 2). In the case of the nAChRα3 subunits, expression can be obtain either alone, or in combination with different cocktails of chaperone or with the vertebrate β2 nAChR subunits. Each of these combinations has a specific affinity for ACh. […]
# (§2) Typically, an oocyte, injected 2 to 5 days before with a given mixture of RNA is placed in the recording chamber filled with the desired solution (usually Na100). […] Both electrodes are then impaled into the oocyte and the resting membrane potential is measured (typically -30/- 50 mV). […] Sometime, the effect of a test compound can be determined directly, by applying 50 µl of the compound directly to the bath (with the main perfusion stopped) at the final working concentration (usually 100-1000 µM), after proper dilution from a stock solution (usually 10 mM in water or DMSO or ethanol) into the desired recording solution. […]
# [2] = target: T1, Apis mellifera nicotinic acetylcholine receptor Am-nAChRα7 (nAChR α7 subunit, SEQ ID NO: 7), expressed with ric3 (Apis mellifera, UniProt A0ACM8Q2V8); experiment: Two-electrode voltage-clamp dose-response on Xenopus laevis oocytes expressing the nAChRα7 subunit (with ric3); format: cell-based
# T1 sequence (A0ACM8Q2V8 21-555): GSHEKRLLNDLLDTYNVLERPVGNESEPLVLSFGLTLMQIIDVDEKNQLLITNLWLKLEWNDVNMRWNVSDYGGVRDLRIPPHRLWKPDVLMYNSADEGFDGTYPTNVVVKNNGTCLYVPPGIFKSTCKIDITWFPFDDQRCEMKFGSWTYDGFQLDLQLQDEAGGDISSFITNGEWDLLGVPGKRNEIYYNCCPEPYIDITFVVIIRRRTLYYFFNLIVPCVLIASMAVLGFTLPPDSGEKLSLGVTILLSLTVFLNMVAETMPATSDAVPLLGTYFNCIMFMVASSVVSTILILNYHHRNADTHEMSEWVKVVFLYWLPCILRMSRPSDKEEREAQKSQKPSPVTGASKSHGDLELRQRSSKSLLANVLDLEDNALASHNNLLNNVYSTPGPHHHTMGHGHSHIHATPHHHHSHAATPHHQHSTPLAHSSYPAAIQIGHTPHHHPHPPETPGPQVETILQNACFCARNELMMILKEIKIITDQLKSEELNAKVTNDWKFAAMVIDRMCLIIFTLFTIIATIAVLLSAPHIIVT
# Experimental: as §1, §2
smiles,measurement,setting,value
CN/C(=N\[N+](=O)[O-])NCc1cnc(Cl)s1 [clothianidin],sensitivity to clothianidin,[1],completely insensitive
same,EC50,[2],~10 µM
same,agonist efficacy compared with ACh,[2]; dose-response curves of ACh and clothianidin recorded on the same oocyte (Figure 4C),less effective agonist than ACh
